In patent US4960698A, “Process for producing L-654,040, antibacterial agent” (Merck & Co., Inc., priority 1989, dated 1990):
≈ marks a conversion by molar mass, not a printed value. Entries after “also recorded” stand apart in the source; their conditions may differ.

Assays:
Eubcterium limosum 3344 = experiment: agar dilution MIC, anaerobic, Wilkens-Chalgren agar; format: cell-based; details: 10^6 cfu/spot, 35° C., 48 hours
Protocol: (a) Wilkens-Chalgren agar was used instead of antagonist-free medium (Roche);
(b) The inoculum/spot was about 10^6 instead of about 10^4 ;
(c) The incubation period was for 48 hours, not 24 hours; and
(d) Incubations were performed under anaerobic conditions.
*Agar dilution assay, multipoint inoculator, WilkensChalgren agar,
inoculum 10^6 cfu/spot, incubation at 35° C. for 48 hours.

numerous microorganisms = experiment: in vitro antibacterial potency (general statement); format: cell-based
[1] = mouse, in vivo
solubility in water = details: water solutions for injection
[2] = system: Pasteurella multocida (4678); experiment: protection and survival of infected mice; details: intraperitoneal; for survival time: 160 mg/kg ×2
[3] = system: Bordetella bronchiseptica (3771); experiment: protection and survival of infected mice; details: intraperitoneal, 160 mg/kg ×2
Staph. aureus 2865 = experiment: agar dilution MIC, antagonist-free medium (Roche); details: Table II
E. coli DC2 4353 = experiment: agar dilution MIC, antagonist-free medium (Roche); details: E. coli permeability mutant, Table II
Pasteurella multocida = experiment: combined therapy with erythromycin in infected mice; details: intraperitoneal, vs erythromycin alone

## CO[C@@]1(NC(=O)Cc2cccs2)C(=O)N2C(C(=O)O)=C(COC(N)=O)CS[C@@H]21 [CEFOXITIN, Cefoxitin, reference compound]
Eubcterium limosum 3344
  MIC: 1 µg/mL (≈ 2.34 µM)

## C[C@H](CNC(=O)[C@H]1N=C(c2cccc(O)c2O)O[C@@H]1C)C(=O)N[C@@H]1CCCN(O)C1=O [L-654,040]
Eubcterium limosum 3344
  MIC: 128 µg/mL (≈ 295 µM)
Numerous microorganisms
  potency in vitro: showing potency in vitro against numerous microorganisms
[1]
  tolerability in uninfected mice: tolerated by uninfected mice
Solubility in water
  solubility in water (in words): limited solubility
[2]
  statistical significance of prolonged survival (in words): statistically significant at one level in two Pasteurella tests
[2]; 160 mg/kg
  survival time: prolongation of survival time was observed; also recorded: increases survival time
[2]; listed as L-654.040, 160 mg/kg
  survival time: did prolong the survival time
[3]; 160 mg/kg
  survival time: prolongation of survival time was observed
[3]; listed as L-654.040, 160 mg/kg
  survival time: did prolong the survival time
Staph. aureus 2865
  sensitivity of strain: sensitive
E. coli DC2 4353
  sensitivity of strain: sensitive
Pasteurella multocida
  efficacy of combined therapy with erythromycin: slightly more effective than erythromycin alone but not to a degree considered to be synergistic
